Source: patent US5268462A, “Oleandomycin oximes” (Pliva Farmaceutska, priority 1990, dated 1993)
Converted amounts (≈) assume the structure as drawn.

How the values were obtained:
Type in all cases: cell-based
E. coli ATCC 10536 = assay: Antibacterial in vitro activity (MIC), standard strain; settings: Escherichia coli, ATCC10536; E. coli ATCC 10536, standard strain; read-out: Minimal Inhibitory Concentration (MIC)
Excerpt: (§1) The antibacterial in vitro activity was evidenced on a series of standard and clinically isolated strains. The results are expressed as Minimal Inhibitory Concentration (MIC; μg/mL) and represented hereinbelow in Tables 1 and 2.

[1] = test system: Klebsiella pneum. NCTC-10499; assay: as above; settings: NCTC10499; Klebsiella pneum. NCTC-10499, standard strain; read-out: Minimal Inhibitory Concentration (MIC)
Excerpt: as §1

Pseud. aerug. NCTC-10490 = assay: as above; settings: Pseud. aerug. NCTC-10490, standard strain; read-out: Minimal Inhibitory Concentration (MIC)
Excerpt: as §1

Sarcina lutea ATCC-9341 = assay: as above; settings: Micrococcus luteus, ATCC9341; Sarcina lutea ATCC-9341, standard strain; read-out: Minimal Inhibitory Concentration (MIC)
Excerpt: as §1

[2] = test system: Staph. aureus ATCC 6538-P; assay: as above; settings: Staphylococcus aureus, ATCC6538, read-out: Minimal Inhibitory Concentration (MIC)
Excerpt: as §1

[3] = test system: Strept. faecalis ATCC-8043; assay: as above; settings: Enterococcus faecalis, ATCC8043; Strept. faecalis ATCC-8043, standard strain; read-out: Minimal Inhibitory Concentration (MIC)
Excerpt: as §1

H. Influenze 4028 = assay: Antibacterial in vitro activity (MIC), clinical isolate; settings: H. Influenze 4028, clinical isolate; read-out: Minimal Inhibitory Concentration (MIC)
Excerpt: as §1

Staph. aureus 10097 = assay: as above; settings: Staphylococcus aureus; Staph. aureus 10097, clinical isolate; read-out: Minimal Inhibitory Concentration (MIC)
Excerpt: as §1

Staph. aureus 10099 = assay: as above; settings: Staphylococcus aureus; Staph. aureus 10099, clinical isolate; read-out: Minimal Inhibitory Concentration (MIC)
Excerpt: as §1

Staph. saprophyt. 3947 = assay: as above; settings: Staph. saprophyt. 3947, clinical isolate; read-out: Minimal Inhibitory Concentration (MIC)
Excerpt: as §1

Strept. faecalis 10390 = assay: as above; settings: Enterococcus faecalis; Strept. faecalis 10390, clinical isolate; read-out: Minimal Inhibitory Concentration (MIC)
Excerpt: as §1

Strept. pneumoniae 4050 = assay: as above; settings: Streptococcus pneumoniae; Strept. pneumoniae 4050, clinical isolate; read-out: Minimal Inhibitory Concentration (MIC)
Excerpt: as §1

Sarcina lutea ATCC 9341 = assay: Activity on Sarcina lutea ATCC 9341
Strept. pneumoniae = assay: MIC (clinical isolates), Examples 1-3; settings: Streptococcus pneumoniae
Excerpt: as §1

Strept. serol. group A = assay: MIC (clinical isolates), Examples 1-3
Excerpt: as §1

## COC1CC(OC2C(C)C(=O)OC(C)C(C)C(O)C(C)C(=NO)C(C)CC(C)C(OC3OC(C)CC(N(C)C)C3O)C2C)OC(C)C1O (single isomer, unassigned) [Ie, 8-methyl-oleandomycin oxime]
E. coli ATCC 10536
  MIC: 6.2 µg/mL (≈ 9 µM)
[1]
  MIC: 50 µg/mL (≈ 72.6 µM)
Pseud. aerug. NCTC-10490
  MIC: 50 µg/mL (≈ 72.6 µM)
Sarcina lutea ATCC-9341
  MIC: 0.2 µg/mL (≈ 0.29 µM)
[2]
  MIC: 0.2 µg/mL (≈ 0.29 µM)
[3]
  MIC: 0.2 µg/mL (≈ 0.29 µM)
H. Influenze 4028
  MIC: 0.4 µg/mL (≈ 0.581 µM)
Staph. aureus 10097
  MIC: 0.4 µg/mL (≈ 0.581 µM)
Staph. aureus 10099
  MIC: 0.4 µg/mL (≈ 0.581 µM)
Staph. saprophyt. 3947
  MIC: 1.6 µg/mL (≈ 2.32 µM)
Strept. faecalis 10390
  MIC: 0.8 µg/mL (≈ 1.16 µM)
Strept. pneumoniae 4050
  MIC: 0.4 µg/mL (≈ 0.581 µM)
Sarcina lutea ATCC 9341
  Activity: 657 u/mg

## COC1CC(OC2C(C)C(=O)OC(C)C(C)C(O)C(C)C(=NO)C3(CO3)CC(C)C(OC3OC(C)CC(N(C)C)C3O)C2C)OC(C)C1O (stereo not drawn) [Ia, OLEANDOMYCIN OXIME]
Strept. pneumoniae
  MIC: 0.5 µg/mL (≈ 0.711 µM)
Strept. serol. group A
  MIC: 0.5 µg/mL (≈ 0.711 µM)

## C=C1CC(C)C(OC2OC(C)CC(N(C)C)C2O)C(C)C(OC2CC(OC)C(O)C(C)O2)C(C)C(=O)OC(C)C(C)C(O)C(C)C1=NO (stereo not drawn) [Ic, 8-METHYLENE-OLEANDOMYCIN OXIME]
Strept. pneumoniae
  MIC: 1 µg/mL (≈ 1.46 µM)
Strept. serol. group A
  MIC: 1 µg/mL (≈ 1.46 µM)

## COC1CC(OC2C(C)C(=O)OC(C)C(C)C=C(C)C(=NO)C3(CO3)CC(C)C(OC3OC(C)CC(N(C)C)C3O)C2C)OC(C)C1O (stereo not drawn) [Ib, ANHYDRO OLEANDOMYCIN OXIME]
Strept. pneumoniae
  MIC: 2 µg/mL (≈ 2.92 µM)
Strept. serol. group A
  MIC: 1 µg/mL (≈ 1.46 µM)

## CO[C@H]1C[C@H](O[C@H]2[C@H](C)[C@@H](O[C@@H]3O[C@H](C)C[C@H](N(C)C)[C@H]3O)[C@@H](C)C[C@@]3(CO3)C(=O)[C@H](C)[C@@H](O)[C@@H](C)[C@@H](C)OC(=O)[C@@H]2C)O[C@@H](C)[C@@H]1O [oleandomycin phosphate, reference compound]
E. coli ATCC 10536
  MIC: 25 µg/mL
[1]
  MIC: > 50 µg/mL
Pseud. aerug. NCTC-10490
  MIC: > 50 µg/mL
Sarcina lutea ATCC-9341
  MIC: 0.2 µg/mL
[2]
  MIC: 0.4 µg/mL
[3]
  MIC: 0.8 µg/mL
Staph. aureus 10097
  MIC: 0.8 µg/mL
Staph. aureus 10099
  MIC: 0.8 µg/mL
Staph. saprophyt. 3947
  MIC: 1.6 µg/mL
Strept. faecalis 10390
  MIC: 3.1 µg/mL
Strept. pneumoniae 4050
  MIC: 1.6 µg/mL
